Results as given in ChEMBL document CHEMBL1201862, “PubChem BioAssay data set” (2004).
Activity calls are given as the source filed them.

What was measured:
[1] = Fluorescence-based cell-based high throughput dose response assay for inhibitors of the interaction of nucleotide-binding oligomerization domain containing 2 (NOD2) and the receptor-interacting serine-threonine kinase 2 (RIPK2).; format: functional, Homo sapiens
[2] = Luminescence Cell-Based Dose Confirmation HTS to Identify Activators of 5'UTR Stem-Loop Driven Alpha-Synuclein mRNA Translation in H4 Neuroglioblastoma Cells. [Related pubchem assays: 1829 (Project Summary), 1814 (Primary HTS)]; format: functional
[3] = microbe, parasite or virus in culture; format: functional; conditions: Mycobacterium tuberculosis
[4] = target: T1, Heat shock factor protein 1 (Mus musculus, UniProt P38532); assay: decrease of HSF1-responsive luciferase luminescence – cell-based, NIH3T3, dose retest, confirmation (AID 2382); format: functional;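 further: NIH3T3 fibroblasts with HSF1-driven luciferase reporter stressed by proteasome inhibitor MG132; luminescence from HSF1-driven luciferase expression after 8 hours of MG132 stress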
T1 sequence (P38532 whole entry): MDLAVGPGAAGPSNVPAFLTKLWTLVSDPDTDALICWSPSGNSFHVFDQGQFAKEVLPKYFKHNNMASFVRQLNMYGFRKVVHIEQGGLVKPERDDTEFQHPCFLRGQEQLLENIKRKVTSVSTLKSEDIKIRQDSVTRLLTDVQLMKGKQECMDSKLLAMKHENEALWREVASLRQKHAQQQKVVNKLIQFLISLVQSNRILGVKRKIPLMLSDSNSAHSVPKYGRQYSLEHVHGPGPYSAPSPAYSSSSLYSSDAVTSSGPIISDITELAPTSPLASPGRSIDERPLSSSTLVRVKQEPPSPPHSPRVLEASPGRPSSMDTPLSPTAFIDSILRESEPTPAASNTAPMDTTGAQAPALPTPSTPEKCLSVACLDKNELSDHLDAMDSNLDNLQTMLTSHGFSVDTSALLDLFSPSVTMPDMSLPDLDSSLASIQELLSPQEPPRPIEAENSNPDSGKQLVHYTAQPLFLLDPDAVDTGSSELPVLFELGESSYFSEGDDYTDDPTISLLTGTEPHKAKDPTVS

Paired box protein Pax-8 = Paired box protein Pax-8 (Homo sapiens, UniProt Q06710); assay: PAX8 transcriptional activity inhibition in RMG-I – RMG-I cells, luciferase, cherry-pick, dose response (AID 687027); format: functional, cell-based;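 further: luciferase reporter driven by Pax8 target thyroperoxidase promoter measured by SteadyGlo luminescence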
H4 = assay: Luminescence Cell-Based Dose Response HTS to Identify Activators of 5'UTR Stem-Loop Driven Prion Protein mRNA Translation in H4 Neuroglioblastoma Cells. [Related pubchem assays: 1829 (Project Summary), 1814 (Primary HTS)]; format: functional; conditions: Homo sapiens
[5] = Luminescence Cell-Based Dose Response HTS to Identify Activators of Luciferase Translation or Activity in H4 […] Cells. [Related pubchem assays: 1829 (Project Summary), 1814 (Primary HTS)]; format: functional
[6] = target: T2, Histone-lysine N-methyltransferase NSD2 (Homo sapiens, UniProt O96028); format: biochemical
T2 sequence (O96028 whole entry): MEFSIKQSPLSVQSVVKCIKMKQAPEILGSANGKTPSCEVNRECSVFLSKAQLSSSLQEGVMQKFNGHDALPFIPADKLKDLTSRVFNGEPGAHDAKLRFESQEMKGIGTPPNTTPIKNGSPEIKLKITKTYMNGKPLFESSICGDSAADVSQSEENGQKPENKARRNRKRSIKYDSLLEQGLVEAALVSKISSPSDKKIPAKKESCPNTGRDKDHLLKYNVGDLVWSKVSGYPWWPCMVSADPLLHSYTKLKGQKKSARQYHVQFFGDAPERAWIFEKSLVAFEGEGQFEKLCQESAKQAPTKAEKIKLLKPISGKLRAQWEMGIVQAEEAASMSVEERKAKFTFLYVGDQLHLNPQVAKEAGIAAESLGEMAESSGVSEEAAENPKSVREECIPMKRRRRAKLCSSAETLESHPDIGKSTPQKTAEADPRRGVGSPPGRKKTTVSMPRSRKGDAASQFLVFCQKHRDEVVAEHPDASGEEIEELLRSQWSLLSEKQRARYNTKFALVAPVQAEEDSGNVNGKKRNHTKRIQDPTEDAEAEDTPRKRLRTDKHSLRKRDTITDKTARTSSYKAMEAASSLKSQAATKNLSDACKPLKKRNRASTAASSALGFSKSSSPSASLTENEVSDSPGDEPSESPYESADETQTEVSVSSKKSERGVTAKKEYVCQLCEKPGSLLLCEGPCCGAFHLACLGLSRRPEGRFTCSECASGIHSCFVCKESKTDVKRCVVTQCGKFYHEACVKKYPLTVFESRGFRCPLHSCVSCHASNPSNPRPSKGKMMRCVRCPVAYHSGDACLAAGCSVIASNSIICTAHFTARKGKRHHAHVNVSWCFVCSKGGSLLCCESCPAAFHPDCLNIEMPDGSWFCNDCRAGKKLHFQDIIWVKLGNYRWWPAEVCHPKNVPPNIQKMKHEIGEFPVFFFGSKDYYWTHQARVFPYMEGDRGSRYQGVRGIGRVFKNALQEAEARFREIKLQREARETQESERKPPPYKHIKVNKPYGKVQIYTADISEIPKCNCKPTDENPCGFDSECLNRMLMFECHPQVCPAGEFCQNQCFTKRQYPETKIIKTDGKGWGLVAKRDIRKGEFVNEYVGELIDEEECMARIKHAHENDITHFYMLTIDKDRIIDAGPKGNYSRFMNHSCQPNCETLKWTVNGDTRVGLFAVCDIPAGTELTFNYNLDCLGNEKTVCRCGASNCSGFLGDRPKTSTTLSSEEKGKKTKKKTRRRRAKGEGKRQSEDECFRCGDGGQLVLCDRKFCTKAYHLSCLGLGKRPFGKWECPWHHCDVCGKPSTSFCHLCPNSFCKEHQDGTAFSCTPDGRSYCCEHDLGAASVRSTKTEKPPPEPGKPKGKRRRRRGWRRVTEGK

[7] = target: FAD-linked sulfhydryl oxidase ALR (Homo sapiens, UniProt P55789); assay: ALR-catalysed DTT oxidation blockers – biochemical, H2O2 detection, luminescence, cherry-pick, dose response (AID 493248)
cells = format: functional
[8] = target: T3, Microphthalmia-associated transcription factor (Homo sapiens, UniProt O75030); assay: reducers of TRPM1 reporter luminescence, concentration series – cell-based, SK-MEL-5, cherry-picked, set 3, MITF inhibitor project, dose response (AID 493073); format: functional;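 further: SK-MEL-5 melanoma cells with luciferase driven by the MITF target TRPM1 promoter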
T3 sequence (O75030 whole entry): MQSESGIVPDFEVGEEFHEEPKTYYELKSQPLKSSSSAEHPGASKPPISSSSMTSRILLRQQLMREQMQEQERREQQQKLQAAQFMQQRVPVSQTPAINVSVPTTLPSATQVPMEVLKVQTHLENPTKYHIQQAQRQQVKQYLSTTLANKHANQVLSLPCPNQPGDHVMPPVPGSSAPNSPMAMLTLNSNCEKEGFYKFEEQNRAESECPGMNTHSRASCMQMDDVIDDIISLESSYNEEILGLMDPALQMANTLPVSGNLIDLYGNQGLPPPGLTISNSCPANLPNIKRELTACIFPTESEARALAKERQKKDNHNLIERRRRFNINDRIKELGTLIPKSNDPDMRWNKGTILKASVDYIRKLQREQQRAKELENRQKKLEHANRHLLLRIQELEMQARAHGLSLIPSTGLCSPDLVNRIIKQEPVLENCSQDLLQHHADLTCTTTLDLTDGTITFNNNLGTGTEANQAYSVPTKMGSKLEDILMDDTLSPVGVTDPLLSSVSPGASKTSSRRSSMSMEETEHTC

[9] = Luminescence Cell-Based Dose Retest to Confirm Inhibitors of Cancer Stem Cells. [Related pubchem assays (depositor defined):AID2717, AID2721]; format: functional; conditions: Homo sapiens
[10] = THP-1 cell cytotoxicity, dose response, cytotoxicity control for non-replicating M. tuberculosis project (AID 489025); format: functional
A-375 = assay: proliferation inhibition in MITF-low A375 cells – cell-based, cherry-pick samples, set 2, counter-screen for MITF modulator project, dose response (AID 540335); format: functional; conditions: Homo sapiens
[11] = target: Dual specificity protein kinase CLK1 (Homo sapiens, UniProt P49759); assay: inhibition of human CLK1 activity – biochemical, cherry-picked samples, selectivity assay for Dyrk1A inhibitor project, dose response (AID 588811)
[12] = blockers of CRF-binding protein–CRF-R2 complex – cell-based, uHTS hits, 384-well, dose response (AID 651639); format: functional, Homo sapiens; conditions: read-out: IC50_Mean
[13] = target: T4, Corticotropin-releasing factor receptor 2/Corticotropin-releasing factor-binding protein (Homo sapiens, UniProt P24387+Q13324); assay: activators of CRF receptor 2 with binding protein – uHTS hits, confirmation (AID 602473); format: functional; conditions: read-out: EC50_Mean
T4 sequence (Q13324 whole entry): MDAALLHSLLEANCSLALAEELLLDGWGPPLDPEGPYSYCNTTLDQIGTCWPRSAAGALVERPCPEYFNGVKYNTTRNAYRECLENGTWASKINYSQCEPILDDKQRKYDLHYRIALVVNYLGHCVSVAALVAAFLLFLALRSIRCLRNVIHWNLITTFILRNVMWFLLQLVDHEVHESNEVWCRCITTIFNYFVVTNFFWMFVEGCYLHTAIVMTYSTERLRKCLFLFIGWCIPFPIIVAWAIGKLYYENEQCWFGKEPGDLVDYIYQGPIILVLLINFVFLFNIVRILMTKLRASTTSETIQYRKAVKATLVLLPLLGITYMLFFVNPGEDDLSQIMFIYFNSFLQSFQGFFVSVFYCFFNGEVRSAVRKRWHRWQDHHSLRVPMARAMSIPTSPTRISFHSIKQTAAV
T4 sequence (P24387 whole entry): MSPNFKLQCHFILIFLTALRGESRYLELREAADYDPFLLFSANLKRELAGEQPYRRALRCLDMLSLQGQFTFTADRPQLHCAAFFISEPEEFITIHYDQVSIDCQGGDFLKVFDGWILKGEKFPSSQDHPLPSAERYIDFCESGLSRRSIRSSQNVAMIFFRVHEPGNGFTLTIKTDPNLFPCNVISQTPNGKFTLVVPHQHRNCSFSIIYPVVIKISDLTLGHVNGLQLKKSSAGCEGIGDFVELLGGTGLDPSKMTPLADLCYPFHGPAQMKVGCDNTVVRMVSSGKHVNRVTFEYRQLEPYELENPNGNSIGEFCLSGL

[14] = target: T4, Corticotropin-releasing factor receptor 2/Corticotropin-releasing factor-binding protein; assay: Dose Response confirmation of uHTS hits for small molecule antagonists of the CRF-binding protein and CRF-R2 receptor complex.; format: functional; conditions: read-out: IC50_Mean
[15] = target: T5, Adenosylmethionine-8-amino-7-oxononanoate aminotransferase (Mycobacterium tuberculosis, UniProt P9WQ81); assay: Mycobacterium tuberculosis BioA enzyme inhibitor Measured in Biochemical System Using Plate Reader - 2163-02_Inhibitor_Dose_CherryPick_Activity.; format: functional, Mycobacterium tuberculosis UT205
T5 sequence (P9WQ81 whole entry): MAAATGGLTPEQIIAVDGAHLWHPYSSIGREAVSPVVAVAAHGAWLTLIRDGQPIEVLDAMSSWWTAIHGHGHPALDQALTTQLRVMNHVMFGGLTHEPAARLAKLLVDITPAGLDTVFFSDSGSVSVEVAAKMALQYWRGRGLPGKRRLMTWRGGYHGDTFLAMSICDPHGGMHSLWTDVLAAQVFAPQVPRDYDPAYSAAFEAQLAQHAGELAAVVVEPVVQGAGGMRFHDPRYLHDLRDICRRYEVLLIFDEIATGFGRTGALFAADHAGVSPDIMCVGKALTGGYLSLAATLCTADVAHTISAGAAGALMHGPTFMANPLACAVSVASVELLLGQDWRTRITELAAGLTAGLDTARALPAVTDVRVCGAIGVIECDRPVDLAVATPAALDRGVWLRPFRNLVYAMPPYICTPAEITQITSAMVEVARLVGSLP

[16] = target: Ras and Rab interactor 1/Tyrosine-protein kinase ABL1 (Homo sapiens, UniProt P00519+Q13671); format: functional;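 further: biochemical TR-FRET dose-response test measuring inhibition of binding between Rin1 and Abl proteins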
Chain of Ras and Rab interactor 1/Tyrosine-protein kinase ABL1 (P00519 whole entry): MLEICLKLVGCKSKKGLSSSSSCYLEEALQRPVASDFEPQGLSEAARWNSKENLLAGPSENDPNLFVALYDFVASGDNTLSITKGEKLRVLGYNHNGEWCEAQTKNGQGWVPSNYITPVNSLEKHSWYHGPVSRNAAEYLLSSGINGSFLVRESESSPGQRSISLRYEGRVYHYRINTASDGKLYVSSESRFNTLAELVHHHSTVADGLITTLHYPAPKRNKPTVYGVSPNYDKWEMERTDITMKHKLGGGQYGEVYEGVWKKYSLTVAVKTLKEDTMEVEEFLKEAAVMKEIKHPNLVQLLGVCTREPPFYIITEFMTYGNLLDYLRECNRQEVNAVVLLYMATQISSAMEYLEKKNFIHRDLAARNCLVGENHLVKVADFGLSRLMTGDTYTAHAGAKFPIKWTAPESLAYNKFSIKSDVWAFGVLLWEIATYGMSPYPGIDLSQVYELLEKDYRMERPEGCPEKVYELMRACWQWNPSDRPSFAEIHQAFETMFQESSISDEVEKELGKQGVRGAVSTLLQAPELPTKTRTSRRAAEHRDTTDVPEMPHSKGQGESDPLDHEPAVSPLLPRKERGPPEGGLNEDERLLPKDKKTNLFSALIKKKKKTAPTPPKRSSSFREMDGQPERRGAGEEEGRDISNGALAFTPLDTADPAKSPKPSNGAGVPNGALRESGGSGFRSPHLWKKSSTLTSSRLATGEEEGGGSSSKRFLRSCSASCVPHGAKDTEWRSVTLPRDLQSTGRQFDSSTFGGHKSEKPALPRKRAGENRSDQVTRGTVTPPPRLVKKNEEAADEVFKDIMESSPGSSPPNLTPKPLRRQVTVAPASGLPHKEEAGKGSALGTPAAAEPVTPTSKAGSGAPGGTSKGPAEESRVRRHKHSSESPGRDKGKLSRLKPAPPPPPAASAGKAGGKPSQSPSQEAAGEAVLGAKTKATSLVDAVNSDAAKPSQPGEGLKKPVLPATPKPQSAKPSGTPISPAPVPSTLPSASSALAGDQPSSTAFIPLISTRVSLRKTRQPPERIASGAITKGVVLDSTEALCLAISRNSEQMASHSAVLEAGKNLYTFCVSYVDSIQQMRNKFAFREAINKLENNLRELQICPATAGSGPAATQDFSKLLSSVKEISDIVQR
Chain of Ras and Rab interactor 1/Tyrosine-protein kinase ABL1 (Q13671 whole entry): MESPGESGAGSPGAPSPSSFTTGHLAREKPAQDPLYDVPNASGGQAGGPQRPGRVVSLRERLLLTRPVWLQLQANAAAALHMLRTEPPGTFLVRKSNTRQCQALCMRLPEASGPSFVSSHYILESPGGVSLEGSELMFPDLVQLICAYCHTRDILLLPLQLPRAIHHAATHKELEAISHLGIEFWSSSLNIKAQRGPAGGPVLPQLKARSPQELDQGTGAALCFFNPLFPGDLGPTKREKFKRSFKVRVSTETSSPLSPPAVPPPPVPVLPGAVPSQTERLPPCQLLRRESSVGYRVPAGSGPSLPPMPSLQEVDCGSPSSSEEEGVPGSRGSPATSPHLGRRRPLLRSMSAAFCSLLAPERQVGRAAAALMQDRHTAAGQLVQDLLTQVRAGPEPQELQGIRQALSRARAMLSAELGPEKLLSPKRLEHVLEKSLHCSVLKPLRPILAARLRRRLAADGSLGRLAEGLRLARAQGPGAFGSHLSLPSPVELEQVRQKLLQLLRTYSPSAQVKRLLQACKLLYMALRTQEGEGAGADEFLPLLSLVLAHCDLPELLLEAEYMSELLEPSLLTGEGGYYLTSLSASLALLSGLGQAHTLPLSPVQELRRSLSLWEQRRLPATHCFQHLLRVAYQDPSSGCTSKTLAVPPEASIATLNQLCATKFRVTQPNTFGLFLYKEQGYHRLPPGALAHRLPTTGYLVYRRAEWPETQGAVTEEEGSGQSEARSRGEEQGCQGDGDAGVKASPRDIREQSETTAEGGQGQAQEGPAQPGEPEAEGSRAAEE

Chain of Dual specificity protein kinase CLK1 (P49759 whole entry): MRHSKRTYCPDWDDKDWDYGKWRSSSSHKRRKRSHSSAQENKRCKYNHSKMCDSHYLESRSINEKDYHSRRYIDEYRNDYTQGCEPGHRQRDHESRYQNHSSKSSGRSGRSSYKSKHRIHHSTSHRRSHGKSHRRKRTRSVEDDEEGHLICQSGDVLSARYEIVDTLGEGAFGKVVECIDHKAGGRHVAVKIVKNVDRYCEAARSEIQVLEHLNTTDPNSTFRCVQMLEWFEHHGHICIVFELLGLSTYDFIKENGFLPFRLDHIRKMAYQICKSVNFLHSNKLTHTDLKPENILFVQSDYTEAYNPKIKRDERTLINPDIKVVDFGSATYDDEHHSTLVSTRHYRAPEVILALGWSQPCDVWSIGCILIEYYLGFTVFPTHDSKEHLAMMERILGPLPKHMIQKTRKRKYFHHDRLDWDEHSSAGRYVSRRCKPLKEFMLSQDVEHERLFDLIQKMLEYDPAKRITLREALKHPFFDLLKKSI
Chain of FAD-linked sulfhydryl oxidase ALR (P55789 whole entry): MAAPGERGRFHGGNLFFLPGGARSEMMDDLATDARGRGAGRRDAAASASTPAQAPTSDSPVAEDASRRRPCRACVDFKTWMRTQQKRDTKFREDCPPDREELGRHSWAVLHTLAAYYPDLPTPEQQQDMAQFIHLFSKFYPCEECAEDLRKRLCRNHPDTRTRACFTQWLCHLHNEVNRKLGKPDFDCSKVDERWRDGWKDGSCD
Chain of Paired box protein Pax-8 (Q06710 whole entry): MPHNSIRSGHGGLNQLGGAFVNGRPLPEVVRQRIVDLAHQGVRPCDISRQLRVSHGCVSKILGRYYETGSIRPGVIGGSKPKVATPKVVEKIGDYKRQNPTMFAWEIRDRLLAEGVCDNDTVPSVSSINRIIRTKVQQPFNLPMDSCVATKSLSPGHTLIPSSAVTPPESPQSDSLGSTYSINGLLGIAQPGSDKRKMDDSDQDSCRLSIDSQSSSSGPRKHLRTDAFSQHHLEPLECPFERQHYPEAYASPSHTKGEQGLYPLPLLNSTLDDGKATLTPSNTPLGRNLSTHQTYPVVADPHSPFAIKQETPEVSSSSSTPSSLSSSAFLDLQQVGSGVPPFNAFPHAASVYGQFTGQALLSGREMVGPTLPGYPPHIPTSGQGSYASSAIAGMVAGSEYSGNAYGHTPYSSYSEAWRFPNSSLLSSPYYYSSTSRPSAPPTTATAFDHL

COc1nn(-c2ccccc2)c(=O)c(Cl)c1Cl
IC50 ([1]; Homo sapiens): 4.58 µM (active) | EC50 [2]: > 120 µM (not active) | CC50 [3]: 8.79 µM (active) | EC50 [4]: 9.89 µM (active) | AC50 (Paired box protein Pax-8): 6.72 µM (active) | EC50 (H4): > 120 µM (not active) | EC50 [5]: > 120 µM (not active)

CCc1ccc(N2C(=O)NC(=O)/C(=C\C=C\c3ccco3)C2=O)cc1
AC50 [6]: > 20 µM (inactive) | AC50 [7]: 4.24 µM (active) | IC50 (cells): 19.6 µM (active) | AC50 [8]: 7.53 µM (active) | AC50 [9]: 1.96 µM (active) | CC50 [10]: > 40 µM (active) | AC50 (A-375): 21.6 µM (active)

CCOC(=O)c1ccc(-c2ccc3ncnc(N(C)Cc4sccc4C)c3c2)o1
AC50 [11]: 1.47 µM (active)

O=C(Nc1cc(-c2ccccc2)sc1C(=O)O)c1cccc(F)c1
IC50 [12]: 14.2 µM (active) | EC50 [13]: > 53 µM (inactive) | IC50 [14]: 23.5 µM (active)

Cc1occc1CNc1ncnc2ccc(-c3ccc4c(c3)OCO4)cc12
AC50 [11]: 0.0118 µM (active)

Cc1ccccc1-n1c(SCC(=O)N(C)C2CCS(=O)(=O)C2)nc2ccccc2c1=O (centres undefined)
AC50 [15]: 2.39 µM (active)

COc1ccc(Cl)cc1NC(=O)C(C)NC(c1ccccc1)c1ccccc1 (centres undefined)
IC50 [12]: > 20 µM (inactive) | EC50 [13]: > 53 µM (inactive) | IC50 [14]: 1.14 µM (active)

CC1=CC2OC3CC4OC(=O)C=CC=CC(C(C)O)OCC(O)C(C)CC(=O)OCC2(CC1O)C4(C)C31CO1 (centres undefined)
IC50 [1]: 49.8 µM (inactive)

COc1ccc(Cc2c(-c3ccc(OC)c(OC)c3)nc3ccc(C)cn23)c(C)c1
AC50 [15]: 2.73 µM (active)

COC(=O)c1ccc(CSc2nnc(-c3ccccc3)n2C)o1
IC50 [16]: 14.1 µM (inactive)

Clc1ccc(CNc2ccnc(-c3ccc4[nH]ncc4c3)n2)cc1Cl
AC50 [11]: 0.00784 µM (active)

CCCOc1ccc(/C=C/C(=O)N2CCN(C(=O)c3ccco3)CC2)cc1OC
IC50 [16]: > 73.5 µM (inactive)

COC(=O)C[C@H]1CC[C@@H]2[C@H](COC[C@@H](O)CN2C(=O)Nc2cccc(F)c2)O1
AC50 [15]: 13.7 µM (active)
